{"source": "patent US9250241B2", "about": "“Use of micropatterned soft substrate for measuring of cell traction forces” (COMMISSARIAT A L'ENERGIE ATOMIQUE ET AUX ENERGIES …, priority 2011, dated 2016)", "key": {"[1]": {"system": "MCF10A expressing inducible ErbB2 receptor", "test": "Cell traction force measurement by crossbow micropattern bar length on micropatterned PAA, ErbB2 inducible cells", "type": "cell-based, human", "conditions": "1 μM, 48 hr before traction force measurement; FIG. 5C", "from_the_text": "When actin cables have an unpredictable spatial distribution, a given deformation cannot be directly assigned to a defined force magnitude. Indeed, forces applied on adjacent adhesion sites both affect local deformations, due to the continuous nature of the substrate. Each deformation results from local and distant forces. So the calculation of the force field is highly dependent on the spatial distribution of force application sites and the relationship between deformation and forces varies from one cell to the other. The inventors hypothesized that in cells developing a reproducible architecture and a controlled pattern of force application, a given local deformation could be assigned to a defined value of the contractile force. […] When the deformation was measured along the shortest, and therefore most contracted, cell axis, the correlation was improved (FIG. 4C). […] On the crossbow, a single image acquisition was sufficient to measure the bar length and read the corresponding average cell traction force using the calibration curve (FIG. 4F). […]\nThe culture of MCF10A cells and the generation of ΔCK2β cell line was described previously (Deshiere et al (2008) Mol Cell Biochem 316(1-2):107-113). […] Substrate relaxation was assessed by detaching cells with trypsin. […]"}, "[2]": {"system": "MCF10A cells", "test": "Cell traction force measurement by crossbow micropattern bar length on micropatterned PAA", "type": "cell-based, human", "procedure": "Non-tumorigenic human epithelial cells from the mammary gland, MCF10A, were plated on the micropatterned PAA substrates. Cells specifically attached to the fibronectin coated micropatterns since non-exposed PAA regions prevented protein adsorption (FIG. 2D). The effect of micropattern geometry on cell traction forces orientation was tested on various shapes: disc, pacman and crossbow (FIG. 3A). Spread cells exerted traction forces on the micropattern that could be measured by looking at the displacement of fluorescent beads embedded in the PAA gel (see FIG. 3B and Material and Methods). Particle Image Velocimetry followed by individual particle tracking were used to measure bead displacements (Marganski et al (2003) Methods Enzymol 361:197-211; Sabass et al (2008) Biophys J 94(1):207-220). Force fields were calculated from the bead displacement fields by using the Fourier transform traction cytometry (Sabass et al, supra; Butler et al (2002) Am J Physiol Cell Physiol 282(3):C595-605). Force fields exerted by individual cells were overlaid and averaged to quantify their reproducibility (FIG. 3C,D). On homogeneously coated regions cells developed forces that were randomly distributed from one cell to the other. In cells constrained on disc shaped micropatterns, forces were still randomly oriented but their magnitudes were lowered due to reduced cell spreading. In cells constrained on pacman shaped micropatterns, forces distribution was geometrically biased due to enhanced cell contraction above non adhesive regions. […] Importantly, most of the traction forces were reproducibly oriented upward, along the straight adhesive bar on the extremity of which the inventors measured the highest pressure (FIG. 3D). […]\nWhen actin cables have an unpredictable spatial distribution, a given deformation cannot be directly assigned to a defined force magnitude. […] When the deformation was measured along the shortest, and therefore most contracted, cell axis, the correlation was improved (FIG. 4C). […]"}}}
{"molecule": "CCC(C)(C)C(=O)C(=O)N1CCCC[C@H]1C(=O)O[C@H](CCc1ccc(OC)c(OC)c1)c1cccc(OCC(=O)NCCNC(=O)COc2cccc([C@@H](CCc3ccc(OC)c(OC)c3)OC(=O)[C@@H]3CCCCN3C(=O)C(=O)C(C)(C)CC)c2)c1", "note": "[AP1510]", "values": [{"measurement": "level of cell contraction versus WT cells", "setting": "[1]", "value": "no significant changes in the level of cell contraction"}]}
{"molecule": "TGFb1: known to induce epithelial to mesenchymal transition (R&D systems)", "values": [{"measurement": "level of cell contraction versus WT cells (crossbow shortening)", "setting": "[2]; 2 ng/mL for 2 days before plating, FIG. 5C", "value": "significantly higher level of cell contraction"}]}
{"molecule": "Cc1ccc2c(c1)C(=O)C1(O)CCN(c3ccccc3)C1=N2", "note": "(stereo not shown) [Blebbistatin]", "values": [{"measurement": "force magnitude decrease over time", "setting": "[2]; 50 μM, single cell, FIG. 5B", "value": "follows a single exponential decay"}, {"measurement": "force inhibition profile in response to increasing dose", "setting": "[2]; increasing drug concentrations successively applied to 6 cells, crossbow bar length, FIG. 5A", "value": "matched the myosin II inhibition profile"}]}
